Source: ChEMBL document CHEMBL4507293 (2021)

Assays:
[1] = target: Epithelial discoidin domain-containing receptor 1 (Homo sapiens) (UniProt Q08345); conditions: Compound concentration 100.0 nM
[2] = target: Bone morphogenetic protein receptor type-1A (Homo sapiens) (UniProt P36894); conditions: Compound concentration 100.0 nM
[3] = target: Serine/threonine-protein kinase Nek10 (Homo sapiens) (UniProt Q6ZWH5); conditions: Compound concentration 100.0 nM
[4] = target: Insulin receptor (Homo sapiens) (UniProt P06213); conditions: Compound concentration 100.0 nM
[5] = target: Serine/threonine-protein kinase TAO1 (Homo sapiens) (UniProt Q7L7X3); conditions: Compound concentration 100.0 nM
[6] = target: TGF-beta receptor type-1 (Homo sapiens) (UniProt P36897); conditions: Compound concentration 100.0 nM
[7] = target: Homeodomain-interacting protein kinase 4 (Homo sapiens) (UniProt Q8NE63); conditions: Compound concentration 100.0 nM
Sequence of Homeodomain-interacting protein kinase 4 (Homo sapiens) (Q8NE63 whole entry): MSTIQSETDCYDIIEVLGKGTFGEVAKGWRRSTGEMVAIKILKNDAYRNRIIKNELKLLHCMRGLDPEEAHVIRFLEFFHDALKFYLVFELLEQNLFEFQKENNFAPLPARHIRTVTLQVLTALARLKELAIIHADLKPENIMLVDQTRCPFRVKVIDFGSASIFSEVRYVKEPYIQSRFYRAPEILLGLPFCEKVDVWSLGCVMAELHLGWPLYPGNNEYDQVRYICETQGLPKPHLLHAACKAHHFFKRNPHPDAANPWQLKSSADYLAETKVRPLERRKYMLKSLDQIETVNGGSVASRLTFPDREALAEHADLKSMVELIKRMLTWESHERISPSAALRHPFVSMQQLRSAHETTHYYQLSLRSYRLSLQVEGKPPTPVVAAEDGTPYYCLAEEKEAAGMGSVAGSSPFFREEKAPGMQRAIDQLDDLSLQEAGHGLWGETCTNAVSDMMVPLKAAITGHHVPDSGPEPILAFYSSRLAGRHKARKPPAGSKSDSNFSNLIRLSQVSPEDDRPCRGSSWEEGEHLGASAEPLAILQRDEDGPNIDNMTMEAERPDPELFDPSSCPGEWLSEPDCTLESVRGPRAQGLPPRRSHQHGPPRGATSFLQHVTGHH

[8] = target: AP2-associated protein kinase 1 (Homo sapiens) (UniProt Q2M2I8); conditions: Compound concentration 100.0 nM
[9] = test system: Mast/stem cell growth factor receptor Kit (Homo sapiens), P10721 [V559D]; conditions: Compound concentration 100.0 nM
Sequence of Mast/stem cell growth factor receptor Kit (Homo sapiens), P10721 [V559D] (P10721 whole entry V559D): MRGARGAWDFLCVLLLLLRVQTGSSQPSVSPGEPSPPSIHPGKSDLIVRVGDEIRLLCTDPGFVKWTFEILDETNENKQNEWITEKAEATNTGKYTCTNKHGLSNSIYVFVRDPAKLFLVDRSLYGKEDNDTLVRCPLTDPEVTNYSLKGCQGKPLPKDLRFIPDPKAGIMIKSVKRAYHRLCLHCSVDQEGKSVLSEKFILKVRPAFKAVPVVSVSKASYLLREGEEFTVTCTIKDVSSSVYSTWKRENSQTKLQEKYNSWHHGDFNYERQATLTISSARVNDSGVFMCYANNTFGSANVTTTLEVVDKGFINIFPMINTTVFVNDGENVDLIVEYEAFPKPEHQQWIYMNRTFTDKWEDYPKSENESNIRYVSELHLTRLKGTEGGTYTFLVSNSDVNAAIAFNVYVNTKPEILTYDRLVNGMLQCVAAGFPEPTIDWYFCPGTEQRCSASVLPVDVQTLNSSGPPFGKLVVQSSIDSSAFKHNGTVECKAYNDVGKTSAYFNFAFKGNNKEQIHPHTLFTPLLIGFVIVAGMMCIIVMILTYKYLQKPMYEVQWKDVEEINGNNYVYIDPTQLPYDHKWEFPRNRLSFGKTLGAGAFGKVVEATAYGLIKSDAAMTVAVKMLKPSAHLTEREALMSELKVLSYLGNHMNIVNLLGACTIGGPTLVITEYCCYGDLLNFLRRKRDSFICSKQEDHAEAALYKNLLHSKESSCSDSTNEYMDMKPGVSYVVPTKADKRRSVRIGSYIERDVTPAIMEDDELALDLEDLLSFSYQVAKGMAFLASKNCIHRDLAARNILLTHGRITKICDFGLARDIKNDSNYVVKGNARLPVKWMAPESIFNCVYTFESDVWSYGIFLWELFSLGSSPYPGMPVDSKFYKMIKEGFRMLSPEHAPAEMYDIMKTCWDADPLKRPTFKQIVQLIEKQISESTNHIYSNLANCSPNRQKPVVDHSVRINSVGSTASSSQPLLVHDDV

[10] = target: Serine/threonine-protein kinase DCLK1 (Homo sapiens) (UniProt O15075); conditions: Compound concentration 100.0 nM
[11] = target: Histamine H4 receptor (Homo sapiens) (UniProt Q9H3N8); conditions: Compound concentration 10.0 uM
[12] = target: Phosphatidylinositol 4-kinase beta (Homo sapiens) (UniProt Q9UBF8); conditions: Compound concentration 100.0 nM
Sequence of Phosphatidylinositol 4-kinase beta (Homo sapiens) (Q9UBF8 2-816 limits assumed): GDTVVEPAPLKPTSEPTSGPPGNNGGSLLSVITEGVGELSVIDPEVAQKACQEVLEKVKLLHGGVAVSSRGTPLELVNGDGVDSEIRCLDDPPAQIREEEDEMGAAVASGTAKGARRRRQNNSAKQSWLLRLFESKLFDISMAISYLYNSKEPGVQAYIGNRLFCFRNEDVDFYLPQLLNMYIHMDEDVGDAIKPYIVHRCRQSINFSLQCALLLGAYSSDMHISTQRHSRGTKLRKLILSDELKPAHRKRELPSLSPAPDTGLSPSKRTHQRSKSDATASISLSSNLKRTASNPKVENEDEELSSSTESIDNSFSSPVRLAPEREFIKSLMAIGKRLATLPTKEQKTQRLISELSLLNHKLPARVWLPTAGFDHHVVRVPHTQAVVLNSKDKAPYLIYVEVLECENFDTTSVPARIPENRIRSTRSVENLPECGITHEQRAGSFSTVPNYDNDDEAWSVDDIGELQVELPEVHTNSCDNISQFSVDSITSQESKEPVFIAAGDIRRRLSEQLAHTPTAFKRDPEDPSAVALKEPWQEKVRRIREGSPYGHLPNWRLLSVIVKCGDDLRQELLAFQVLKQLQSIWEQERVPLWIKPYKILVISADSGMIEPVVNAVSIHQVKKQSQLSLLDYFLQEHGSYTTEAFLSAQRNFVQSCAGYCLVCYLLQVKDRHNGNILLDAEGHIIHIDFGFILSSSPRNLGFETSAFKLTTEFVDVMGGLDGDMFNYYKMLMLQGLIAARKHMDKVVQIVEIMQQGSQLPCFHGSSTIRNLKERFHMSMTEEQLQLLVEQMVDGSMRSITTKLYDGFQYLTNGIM

[13] = target: D(1A) dopamine receptor (Homo sapiens) (UniProt P21728); conditions: Compound concentration 10.0 uM
[14] = target: Insulin-like growth factor 1 receptor (Homo sapiens) (UniProt P08069); conditions: Compound concentration 100.0 nM
[15] = test system: Tyrosine-protein kinase ABL1 (Homo sapiens), P00519 [H396P]; conditions: Compound concentration 100.0 nM
[16] = target: Cyclin-dependent kinase 15 (Homo sapiens) (UniProt Q96Q40); conditions: Compound concentration 100.0 nM
[17] = target: 5-hydroxytryptamine receptor 1D (Homo sapiens) (UniProt P28221); conditions: Compound concentration 10.0 uM
Sequence of 5-hydroxytryptamine receptor 1D (Homo sapiens) (P28221 whole entry): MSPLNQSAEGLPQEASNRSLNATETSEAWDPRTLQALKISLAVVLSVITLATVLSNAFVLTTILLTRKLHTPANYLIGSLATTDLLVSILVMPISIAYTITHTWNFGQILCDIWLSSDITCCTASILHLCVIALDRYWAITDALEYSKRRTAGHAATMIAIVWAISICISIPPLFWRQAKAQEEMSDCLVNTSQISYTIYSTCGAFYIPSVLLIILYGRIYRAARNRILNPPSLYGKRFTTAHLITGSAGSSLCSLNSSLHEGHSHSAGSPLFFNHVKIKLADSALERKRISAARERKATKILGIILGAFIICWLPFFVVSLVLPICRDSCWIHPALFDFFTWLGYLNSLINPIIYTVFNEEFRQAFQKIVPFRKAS

[18] = target: Homeodomain-interacting protein kinase 2 (Homo sapiens) (UniProt Q9H2X6); conditions: Compound concentration 100.0 nM
[19] = target: Mitogen-activated protein kinase kinase kinase 12 (Homo sapiens) (UniProt Q12852); conditions: Compound concentration 100.0 nM
[20] = target: Serine/threonine-protein kinase 16 (Homo sapiens) (UniProt O75716); conditions: Compound concentration 100.0 nM
[21] = target: Serine/threonine-protein kinase PLK3 (Homo sapiens) (UniProt Q9H4B4); conditions: Compound concentration 100.0 nM
[22] = target: Fibroblast growth factor receptor 4 (Homo sapiens) (UniProt P22455); conditions: Compound concentration 100.0 nM
Sequence of Fibroblast growth factor receptor 4 (Homo sapiens) (P22455 22-802 limits assumed): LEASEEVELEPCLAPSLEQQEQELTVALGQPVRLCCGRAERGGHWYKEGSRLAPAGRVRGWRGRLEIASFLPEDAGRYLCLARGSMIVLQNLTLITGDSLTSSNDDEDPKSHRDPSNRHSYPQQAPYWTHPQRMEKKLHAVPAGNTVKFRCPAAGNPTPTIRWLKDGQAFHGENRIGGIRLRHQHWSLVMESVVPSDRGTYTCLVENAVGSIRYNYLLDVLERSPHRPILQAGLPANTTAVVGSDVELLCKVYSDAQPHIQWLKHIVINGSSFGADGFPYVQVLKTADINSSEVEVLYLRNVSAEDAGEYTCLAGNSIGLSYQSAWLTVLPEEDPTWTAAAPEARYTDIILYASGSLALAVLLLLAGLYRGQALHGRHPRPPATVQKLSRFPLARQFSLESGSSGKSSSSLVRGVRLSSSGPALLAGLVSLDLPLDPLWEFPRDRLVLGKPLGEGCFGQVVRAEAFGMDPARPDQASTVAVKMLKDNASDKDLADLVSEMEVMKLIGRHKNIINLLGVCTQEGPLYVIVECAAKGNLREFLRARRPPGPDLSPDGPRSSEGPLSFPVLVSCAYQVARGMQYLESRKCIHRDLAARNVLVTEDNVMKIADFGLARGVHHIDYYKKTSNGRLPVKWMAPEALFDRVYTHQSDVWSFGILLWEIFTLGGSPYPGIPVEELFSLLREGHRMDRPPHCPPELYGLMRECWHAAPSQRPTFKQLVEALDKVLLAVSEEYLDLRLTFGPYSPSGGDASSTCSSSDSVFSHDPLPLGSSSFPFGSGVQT

[23] = target: Ribosomal protein S6 kinase beta-1 (Homo sapiens) (UniProt P23443); conditions: Compound concentration 100.0 nM
[24] = test system: eIF-2-alpha kinase GCN2 (Homo sapiens), Q9P2K8 [S808G]; conditions: Compound concentration 100.0 nM
[25] = target: Serine/threonine-protein kinase MRCK alpha (Homo sapiens) (UniProt Q5VT25); conditions: Compound concentration 100.0 nM
[26] = test system: Proto-oncogene tyrosine-protein kinase receptor Ret (Homo sapiens), P07949 [V804M]; conditions: Compound concentration 100.0 nM
[27] = target: Calcium/calmodulin-dependent protein kinase kinase 2 (Homo sapiens) (UniProt Q96RR4); conditions: Compound concentration 100.0 nM
[28] = target: Ephrin type-A receptor 6 (Homo sapiens) (UniProt Q9UF33); conditions: Compound concentration 100.0 nM
[29] = target: Serine/threonine-protein kinase Chk1 (Homo sapiens) (UniProt O14757); conditions: Compound concentration 100.0 nM
[30] = test system: Receptor-type tyrosine-protein kinase FLT3 (Homo sapiens), P36888 [D835Y]; conditions: Compound concentration 100.0 nM
[31] = target: Interleukin-1 receptor-associated kinase 4 (Homo sapiens) (UniProt Q9NWZ3); conditions: Compound concentration 100.0 nM
[32] = target: Serine/threonine-protein kinase 38-like (Homo sapiens) (UniProt Q9Y2H1); conditions: Compound concentration 100.0 nM
[33] = target: Delta-type opioid receptor (Homo sapiens) (UniProt P41143); conditions: Compound concentration 10.0 uM
[34] = target: Serine/threonine-protein kinase 36 (Homo sapiens) (UniProt Q9NRP7); conditions: Compound concentration 100.0 nM
[35] = target: Serine/threonine-protein kinase SIK1 (Homo sapiens) (UniProt P57059); conditions: Compound concentration 100.0 nM
[36] = target: Serine/threonine-protein kinase MARK1 (Homo sapiens) (UniProt Q9P0L2); conditions: Compound concentration 100.0 nM
[37] = target: Aurora kinase B (Homo sapiens) (UniProt Q96GD4); conditions: Compound concentration 100.0 nM
[38] = target: Serine/threonine-protein kinase tousled-like 2 (Homo sapiens) (UniProt Q86UE8); conditions: Compound concentration 100.0 nM
[39] = test system: Tyrosine-protein kinase ABL1 (Homo sapiens), P00519 [M351T]; conditions: Compound concentration 100.0 nM
[40] = target: Serine/threonine-protein kinase PAK 3 (Homo sapiens) (UniProt O75914); conditions: Compound concentration 100.0 nM
[41] = target: Cyclin-dependent kinase 9 (Homo sapiens) (UniProt P50750); conditions: Compound concentration 100.0 nM
[42] = target: Cyclin-dependent kinase 13 (Homo sapiens) (UniProt Q14004); conditions: Compound concentration 100.0 nM
[43] = target: 3-phosphoinositide-dependent protein kinase 1 (Homo sapiens) (UniProt O15530); conditions: Compound concentration 100.0 nM
[44] = target: Interleukin-1 receptor-associated kinase 1 (Homo sapiens) (UniProt P51617); conditions: Compound concentration 100.0 nM
[45] = target: Ephrin type-A receptor 4 (Homo sapiens) (UniProt P54764); conditions: Compound concentration 100.0 nM
[46] = target: Tyrosine-protein kinase Yes (Homo sapiens) (UniProt P07947); conditions: Compound concentration 100.0 nM
Sequence of Tyrosine-protein kinase Yes (Homo sapiens) (P07947 2-543 limits assumed): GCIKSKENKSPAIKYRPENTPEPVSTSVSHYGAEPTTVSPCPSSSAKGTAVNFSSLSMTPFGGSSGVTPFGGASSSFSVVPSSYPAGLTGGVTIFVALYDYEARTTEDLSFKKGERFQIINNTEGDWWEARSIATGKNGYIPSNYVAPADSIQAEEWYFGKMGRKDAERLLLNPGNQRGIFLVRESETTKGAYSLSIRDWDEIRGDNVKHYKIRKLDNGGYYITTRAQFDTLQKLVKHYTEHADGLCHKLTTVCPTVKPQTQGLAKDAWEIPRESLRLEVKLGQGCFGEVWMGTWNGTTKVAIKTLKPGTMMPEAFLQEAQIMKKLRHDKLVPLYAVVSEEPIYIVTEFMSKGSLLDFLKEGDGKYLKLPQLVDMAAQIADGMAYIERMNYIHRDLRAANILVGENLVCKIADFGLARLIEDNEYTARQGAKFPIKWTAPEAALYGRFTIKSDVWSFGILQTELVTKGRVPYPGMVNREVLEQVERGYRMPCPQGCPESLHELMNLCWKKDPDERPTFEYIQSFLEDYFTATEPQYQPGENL

Sequence of Epithelial discoidin domain-containing receptor 1 (Homo sapiens) (Q08345 whole entry, the tested form may be a part): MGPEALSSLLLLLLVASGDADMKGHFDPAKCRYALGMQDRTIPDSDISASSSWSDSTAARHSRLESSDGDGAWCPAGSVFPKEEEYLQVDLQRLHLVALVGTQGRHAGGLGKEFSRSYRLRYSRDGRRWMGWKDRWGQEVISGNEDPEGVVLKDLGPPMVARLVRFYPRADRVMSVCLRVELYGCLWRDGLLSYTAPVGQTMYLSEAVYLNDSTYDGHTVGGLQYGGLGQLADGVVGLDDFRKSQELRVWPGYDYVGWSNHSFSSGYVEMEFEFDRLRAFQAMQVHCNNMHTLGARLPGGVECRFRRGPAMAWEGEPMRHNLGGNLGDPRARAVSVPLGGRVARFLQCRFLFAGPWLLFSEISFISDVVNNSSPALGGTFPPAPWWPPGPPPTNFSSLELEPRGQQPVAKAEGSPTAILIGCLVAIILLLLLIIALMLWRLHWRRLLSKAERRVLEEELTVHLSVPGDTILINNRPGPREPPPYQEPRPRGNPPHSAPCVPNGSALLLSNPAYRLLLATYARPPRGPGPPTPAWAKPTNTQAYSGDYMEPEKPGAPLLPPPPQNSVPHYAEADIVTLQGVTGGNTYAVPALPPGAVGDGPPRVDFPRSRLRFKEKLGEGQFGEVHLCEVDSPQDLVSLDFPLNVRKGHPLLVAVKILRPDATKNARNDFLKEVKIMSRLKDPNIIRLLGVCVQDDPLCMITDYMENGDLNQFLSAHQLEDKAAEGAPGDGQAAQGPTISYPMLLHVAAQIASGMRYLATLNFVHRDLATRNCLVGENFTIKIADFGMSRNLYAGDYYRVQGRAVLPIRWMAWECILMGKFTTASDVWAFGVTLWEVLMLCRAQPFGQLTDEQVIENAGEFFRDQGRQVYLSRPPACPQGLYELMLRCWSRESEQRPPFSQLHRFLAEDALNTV

CC(C)CC(=O)N1CCc2nc(-c3ccc(Br)cc3)nc(N(C)Cc3ccccc3)c2C1 [THPP-1-NC]
inactive: residual activity [1] 100% | residual activity [2] 93% | residual activity [3] 100% | residual activity [4] 84% | residual activity [5] 100% | residual activity [6] 100% | residual activity [7] 61% | residual activity [8] 100% | residual activity [9] 100% | residual activity [10] 100% | inhibition [11] -7.78% | residual activity [12] 100% | inhibition [13] 18.5% | residual activity [14] 83% | residual activity [15] 68% | residual activity [16] 100% | inhibition [17] 22.6% | residual activity [18] 100% | residual activity [19] 90% | residual activity [20] 100% | residual activity [21] 100% | residual activity [22] 98% | residual activity [23] 100% | residual activity [24] 100% | residual activity [25] 100% | residual activity [26] 82% | residual activity [27] 100% | residual activity [28] 100% | residual activity [29] 100% | residual activity [30] 100% | residual activity [31] 100% | residual activity [32] 95% | inhibition [33] 8.22% | residual activity [34] 78% | residual activity [35] 91% | residual activity [36] 92% | residual activity [37] 92% | residual activity [38] 100% | residual activity [39] 100% | residual activity [40] 100% | residual activity [41] 100% | residual activity [42] 100% | residual activity [43] 100% | residual activity [44] 100% | residual activity [45] 100% | residual activity [46] 100%

COCCOc1nc(-c2ccc(Cl)nc2)nc2c1CN(C(=O)c1ncn3ccccc13)CC2 [THPP-1]
inactive: residual activity [1] 100% | residual activity [2] 82% | residual activity [3] 100% | residual activity [4] 76% | residual activity [5] 100% | residual activity [6] 100% | residual activity [7] 83% | residual activity [8] 100% | residual activity [9] 100% | residual activity [10] 100% | inhibition [11] -6.39% | residual activity [12] 100% | inhibition [13] -8.34% | residual activity [14] 82% | residual activity [15] 70% | residual activity [16] 100% | inhibition [17] 8.09% | residual activity [18] 100% | residual activity [19] 97% | residual activity [20] 100% | residual activity [21] 100% | residual activity [22] 90% | residual activity [23] 100% | residual activity [24] 100% | residual activity [25] 100% | residual activity [26] 89% | residual activity [27] 100% | residual activity [28] 100% | residual activity [29] 100% | residual activity [30] 100% | residual activity [31] 100% | residual activity [32] 100% | inhibition [33] 6.52% | residual activity [34] 79% | residual activity [35] 100% | residual activity [36] 100% | residual activity [37] 97% | residual activity [38] 100% | residual activity [39] 100% | residual activity [40] 100% | residual activity [41] 100% | residual activity [42] 100% | residual activity [43] 90% | residual activity [44] 100% | residual activity [45] 100% | residual activity [46] 100%
